Here are results for seven molecules from patent publication US20200131669A1, “CYCLIC PEPTIDE COMPOUND HAVING HIGH MEMBRANE PERMEABILITY, AND LIBRARY CONTAINING SAME” (Chugai Seiyaku Kabushiki Kaisha, priority 2017, published 2020).

Positions of bridges follow the written chain, without caps; N, C: chain ends. Non-standard residues stand in square brackets, D forms with d. Residues, ends and D or L forms follow the SMILES beside them. *: point of attachment. NMePhe(3-Cl) = CN[C@@H](Cc1cccc(Cl)c1)C(=O)O; NMeF = CN[C@@H](Cc1ccccc1)C(=O)O; NMeI = CC[C@H](C)[C@H](NC)C(=O)O; NMeL = CN[C@@H](CC(C)C)C(=O)O; Propyl(2R-OH) = C[C@@H](O)C*; NMeV = CN[C@H](C(=O)O)C(C)C; NMeA = CN[C@@H](C)C(=O)O; Piperidide = C1CCN(*)CC1; CH2CMe2OH = CC(C)(O)C*; Isopentyl = CC(C)CC*; NPrGly = CCCNCC(=O)O; Sar = CNCC(=O)O; tBu = CC(C)(C)*

The nature of this data set: Caco-2 membrane permeability, improved method as used in the following Examples (96-well, 20 to 24 h preincubation). The note with it: human, Caco-2, Caco-2. The class given is in vitro ADME. The essentials: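 Papp (cm/sec) was derived from LC/MS of basal samples collected 180 min after apical dosing in FaSSIF/HBSS pH 6.0 with 1% DMSO, against a basal HBSS pH 7.4 receiver containing 4% BSA. Three-week Caco-2 cultures were first preincubated with compound in DMEM+FaSSIF at 37 °C for 20–24 h.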
(Passage across Caco-2 layers is used to estimate intestinal permeability.)
Usually Papp A→B stands for the apparent permeability from the apical to the basolateral side of a cell layer. A low value points to slow passage. Molecule `CCCN1CC(=O)N(C)[C@@H](CC(C)C)C(=O)N[C@H](C(=O)N2CCCCC2)CC(=O)N(C)[C@@H](C)C(=O)N[C@@H](COC[C@@H](C)O)C(=O)N(C)[C@@H](CC(C)C)C(=O)N(C)[C@@H](Cc2cccc(Cl)c2)C(=O)N[C@@H](CC(C)C)C(=O)N(C)[C@@H](Cc2ccccc2)C(=O)N(C)[C@@H]([C@@H](C)CC)C(=O)N[C@@H]([C@@H](C)O)C1=O` [pd425] ([NMeA]S(Propyl(2R-OH))[NMeL][NMePhe(3-Cl)]L[NMeF][NMeI]T[NPrGly][NMeL]D-Piperidide; lactam N-11) showed a Papp A→B at 180 min of 1.2 ×10⁻⁶ cm/s. As to `CCCN1CC(=O)N(C)[C@@H](CC(C)C)C(=O)N[C@@H](COCCC(C)C)C(=O)N(C)[C@@H](Cc2ccccc2)C(=O)N(C)[C@@H](C(C)C)C(=O)N[C@H](C(=O)N2CCCCC2)CC(=O)N[C@H](C(C)C)C(=O)N(C)[C@@H](Cc2ccccc2)C(=O)N[C@@H](COCC(C)(C)O)C(=O)N(C)[C@@H](CC(C)C)C(=O)N[C@@H]([C@@H](C)O)C1=O` [pd426] ([dV][NMeF]S(CH2CMe2OH)[NMeL]T[NPrGly][NMeL]S(Isopentyl)[NMeF][NMeV]D-Piperidide; lactam N-11), the Papp A→B at 180 min turned out to be 1.4 ×10⁻⁶ cm/s. `CC(C)C[C@@H]1NC(=O)[C@H](Cc2ccccc2)N(C)C(=O)[C@@H](C(C)C)NC(=O)C[C@@H](C(=O)N2CCCCC2)NC(=O)[C@H](CC(C)C)N(C)C(=O)[C@H](Cc2cccc(Cl)c2)N(C)C(=O)[C@H](COCC(C)(C)O)NC(=O)[C@H](CC(C)C)N(C)C(=O)CN(C)C(=O)[C@H]([C@@H](C)O)NC(=O)[C@H](CC(C)C)N(C)C1=O` [pd427] ([dV][NMeF]L[NMeL]T[Sar][NMeL]S(CH2CMe2OH)[NMePhe(3-Cl)][NMeL]D-Piperidide; lactam N-11): the Papp A→B at 180 min was 1.3 ×10⁻⁶ cm/s. In turn, `CCCN1CC(=O)N(C)[C@@H](CC(C)C)C(=O)N[C@H](C(=O)N2CCCCC2)CC(=O)N(C)[C@@H](C)C(=O)N[C@@H](COCC(C)(C)O)C(=O)N(C)[C@@H](CC(C)C)C(=O)N(C)[C@@H](Cc2ccccc2)C(=O)N[C@@H](CC(C)C)C(=O)N(C)[C@@H](Cc2ccccc2)C(=O)N(C)[C@@H]([C@@H](C)CC)C(=O)N[C@@H]([C@@H](C)O)C1=O` [pd428] ([NMeA]S(CH2CMe2OH)[NMeL][NMeF]L[NMeF][NMeI]T[NPrGly][NMeL]D-Piperidide; lactam N-11) displayed a Papp A→B at 180 min of 2.8 ×10⁻⁶ cm/s.

Regarding `CCCN1CC(=O)N(C)[C@@H](CC(C)C)C(=O)N[C@H](C(=O)N2CCCCC2)CC(=O)N(C)[C@@H](C)C(=O)N[C@@H](CC(C)C)C(=O)N(C)[C@@H](CC(C)C)C(=O)N(C)[C@@H](Cc2ccccc2)C(=O)N[C@@H](COCC(C)(C)O)C(=O)N(C)[C@@H](Cc2ccccc2)C(=O)N(C)[C@@H]([C@@H](C)CC)C(=O)N[C@@H]([C@@H](C)O)C1=O` [pd429] ([NMeA]L[NMeL][NMeF]S(CH2CMe2OH)[NMeF][NMeI]T[NPrGly][NMeL]D-Piperidide; lactam N-11), the Papp A→B at 180 min is 3.3 ×10⁻⁶ cm/s. Molecule `CCCN1CC(=O)N(C)[C@@H](Cc2cccc(Cl)c2)C(=O)N(C)[C@@H](CC(C)C)C(=O)N[C@@H](COC(C)(C)C)C(=O)N(C)[C@@H](CC(C)C)C(=O)N[C@H](C(=O)N2CCCCC2)CC(=O)N(C)CC(=O)N(C)[C@@H](Cc2ccccc2)C(=O)N[C@@H](COCC(C)(C)O)C(=O)N(C)[C@@H](CC(C)C)C(=O)N[C@@H]([C@@H](C)O)C1=O` [pd430] ([Sar][NMeF]S(CH2CMe2OH)[NMeL]T[NPrGly][NMePhe(3-Cl)][NMeL]S(tBu)[NMeL]D-Piperidide; lactam N-11) came in with a Papp A→B at 180 min of 1.3 ×10⁻⁶ cm/s. The molecule `CCCN1CC(=O)N(C)[C@@H](CC(C)C)C(=O)N[C@@H](COCC(C)(C)O)C(=O)N(C)[C@@H](Cc2ccccc2)C(=O)N(C)[C@@H](CC(C)C)C(=O)N[C@H](C(=O)N2CCCCC2)CC(=O)N[C@H](C(C)C)C(=O)N(C)[C@@H](Cc2ccccc2)C(=O)N[C@@H](CC(C)C)C(=O)N(C)[C@@H](CC(C)C)C(=O)N[C@@H]([C@@H](C)O)C1=O` [pd432] ([dV][NMeF]L[NMeL]T[NPrGly][NMeL]S(CH2CMe2OH)[NMeF][NMeL]D-Piperidide; lactam N-11) returned a Papp A→B at 180 min of 1.5 ×10⁻⁶ cm/s.
